HELM strings list units from the 5' end as sugar, base in round brackets, then linkage (d deoxyribose, r ribose, m 2'-O-methyl, p phosphodiester). Strings are as the collection lists them; they lack the last nucleoside at the 3' end of the tested compound. [moe] = 2'-O-(2-methoxyethyl) (MOE); [sp] = phosphorothioate linkage; [m5C] = 5-methylcytosine

This series addresses ATXN3. Kind of series: mouse, dose not given. The note with it: ASO.
The substance “RNA1{[moe](G)[sp].[moe]([m5C])[sp].[moe](A)p.[moe]([m5C])p.[moe]([m5C])[sp].d(A)[sp].d(T)[sp].d(A)[sp].d(T)[sp].d(A)[sp].d(T)[sp].d(A)[sp].d(T)[sp].d([m5C])[sp].d(T)[sp].[moe]([m5C])p.[moe](A)p.[moe](G)[sp].[moe](A)}$$$$ (last 3' nucleoside missing)” displayed a 3 h FOB score of 1 score 0-7.
For the substance “RNA1{[moe](G)[sp].[moe]([m5C])[sp].[moe](T)p.[moe]([m5C])p.[moe](A)[sp].d(T)[sp].d(T)[sp].d(T)[sp].d(A)[sp].d(T)[sp].d(T)[sp].d([m5C])[sp].d(T)[sp].d([m5C])[sp].d(A)[sp].[moe](A)p.[moe](G)p.[moe](T)[sp].[moe](A)}$$$$ (last 3' nucleoside missing)”, the 3 h FOB score was 1 score 0-7.
With “RNA1{[moe](G)[sp].[moe]([m5C])p.[moe](A)[sp].[moe]([m5C])[sp].[moe]([m5C])[sp].d(A)[sp].d(T)[sp].d(A)[sp].d(T)[sp].d(A)[sp].d(T)[sp].d(A)[sp].d(T)[sp].d([m5C])[sp].d(T)[sp].[moe]([m5C])[sp].[moe](A)p.[moe](G)[sp].[moe](A)}$$$$ (last 3' nucleoside missing)” the figure was 0 score 0-7; with “RNA1{[moe](G)[sp].[moe]([m5C])p.[moe](A)p.[moe](T)p.[moe](A)[sp].d(T)[sp].d(T)[sp].d(G)[sp].d(G)[sp].d(T)[sp].d(T)[sp].d(T)[sp].d(T)[sp].d([m5C])[sp].[moe](T)p.[moe]([m5C])p.[moe](A)[sp].[moe](T)}$$$$ (last 3' nucleoside missing)”, 5.5 score 0-7; with “RNA1{[moe](G)[sp].[moe]([m5C])p.[moe](A)p.[moe](T)p.[moe](A)[sp].d(T)[sp].d(T)[sp].d(G)[sp].d(G)[sp].d(T)[sp].d(T)[sp].d(T)[sp].d(T)[sp].d([m5C])[sp].d(T)[sp].[moe]([m5C])p.[moe](A)p.[moe](T)p.[moe](T)}$$$$ (last 3' nucleoside missing)”, 3 score 0-7.
With “RNA1{[moe](G)[sp].[moe]([m5C])p.[moe](A)p.[moe](T)p.[moe](A)p.[moe](T)p.d(T)[sp].d(G)[sp].d(G)[sp].d(T)[sp].d(T)[sp].d(T)[sp].d(T)[sp].d([m5C])[sp].d(T)[sp].d([m5C])[sp].[moe](A)p.[moe](T)[sp].[moe](T)}$$$$ (last 3' nucleoside missing)” the figure was 3 score 0-7; with “RNA1{[moe](G)[sp].[moe]([m5C])p.[moe](A)p.[moe](T)p.[moe](A)p.d(T)[sp].d(T)[sp].d(G)[sp].d(G)[sp].d(T)[sp].d(T)[sp].d(T)[sp].d(T)[sp].d([m5C])[sp].d(T)[sp].[moe]([m5C])p.[moe](A)p.[moe](T)[sp].[moe](T)}$$$$ (last 3' nucleoside missing)”, 2.5 score 0-7.
“RNA1{[moe](G)[sp].[moe]([m5C])p.[moe](A)p.[moe](T)p.[moe](A)p.d(T)[sp].d(T)[sp].d(G)[sp].d(G)[sp].d(T)[sp].d(T)[sp].d(T)[sp].d(T)[sp].d([m5C])[sp].d(T)[sp].[moe]([m5C])p.[moe](A)p.[moe](T)p.[moe](T)}$$$$ (last 3' nucleoside missing)” came in with a 3 h FOB score of 3 score 0-7.
Under “RNA1{[moe](G)[sp].[moe]([m5C])p.[moe](A)p.[moe]([m5C])p.[moe](A)p.[moe](T)p.d(T)[sp].d(T)[sp].d(T)[sp].d(T)[sp].d(T)[sp].d(A)[sp].d(T)[sp].d(A)[sp].d(G)[sp].d(A)[sp].[moe](G)p.[moe](T)[sp].[moe](T)}$$$$ (last 3' nucleoside missing)” stands 1 score 0-7; under “RNA1{[moe](G)[sp].[moe]([m5C])p.[moe](A)p.[moe]([m5C])p.[moe](A)p.[moe]([m5C])p.d(T)[sp].d(T)[sp].d(T)[sp].d([m5C])[sp].d([m5C])[sp].d(T)[sp].d([m5C])[sp].d([m5C])[sp].d(T)[sp].d([m5C])[sp].[moe](A)p.[moe](A)[sp].[moe](T)}$$$$ (last 3' nucleoside missing)”, 0 score 0-7; under “RNA1{[moe](G)[sp].[moe]([m5C])p.[moe](A)p.[moe]([m5C])p.[moe]([m5C])p.[moe](A)p.d(T)[sp].d(A)[sp].d(T)[sp].d(A)[sp].d(T)[sp].d(A)[sp].d(T)[sp].d([m5C])[sp].d(T)[sp].d([m5C])[sp].[moe](A)p.[moe](G)[sp].[moe](A)}$$$$ (last 3' nucleoside missing)”, 0.25 score 0-7.
With “RNA1{[moe](G)[sp].[moe]([m5C])p.[moe](A)p.[moe]([m5C])p.[moe]([m5C])p.d(A)[sp].d(T)[sp].d(A)[sp].d(T)[sp].d(A)[sp].d(T)[sp].d(A)[sp].d(T)[sp].d([m5C])[sp].d(T)[sp].[moe]([m5C])p.[moe](A)p.[moe](G)[sp].[moe](A)}$$$$ (last 3' nucleoside missing)” the figure was 1 score 0-7; with “RNA1{[moe](G)[sp].[moe]([m5C])p.[moe](T)[sp].[moe]([m5C])[sp].[moe](A)[sp].d(T)[sp].d(T)[sp].d(T)[sp].d(A)[sp].d(T)[sp].d(T)[sp].d([m5C])[sp].d(T)[sp].d([m5C])[sp].d(A)[sp].[moe](A)[sp].[moe](G)p.[moe](T)[sp].[moe](A)}$$$$ (last 3' nucleoside missing)”, 2 score 0-7; with “RNA1{[moe](G)[sp].[moe]([m5C])p.[moe](T)p.[moe](A)p.[moe](T)[sp].d(A)[sp].d(A)[sp].d(T)[sp].d(T)[sp].d([m5C])[sp].d(T)[sp].d(T)[sp].d(G)[sp].d([m5C])[sp].d(T)[sp].[moe](T)p.[moe]([m5C])p.[moe](A)[sp].[moe](A)}$$$$ (last 3' nucleoside missing)”, 1.75 score 0-7.
In turn, “RNA1{[moe](G)[sp].[moe]([m5C])p.[moe](T)p.[moe]([m5C])p.[moe](A)p.[moe](T)p.d(T)[sp].d(T)[sp].d(A)[sp].d(T)[sp].d(T)[sp].d([m5C])[sp].d(T)[sp].d([m5C])[sp].d(A)[sp].d(A)[sp].[moe](G)p.[moe](T)[sp].[moe](A)}$$$$ (last 3' nucleoside missing)” registered a 3 h FOB score of 0 score 0-7.
Under “RNA1{[moe](G)[sp].[moe]([m5C])p.[moe](T)p.[moe]([m5C])p.[moe](A)p.d(T)[sp].d(T)[sp].d(T)[sp].d(A)[sp].d(T)[sp].d(T)[sp].d([m5C])[sp].d(T)[sp].d([m5C])[sp].d(A)[sp].[moe](A)p.[moe](G)p.[moe](T)[sp].[moe](A)}$$$$ (last 3' nucleoside missing)” stands 1 score 0-7; under “RNA1{[moe](G)[sp].[moe]([m5C])p.[moe]([m5C])[sp].[moe](A)[sp].[moe](A)[sp].d(A)[sp].d(A)[sp].d(T)[sp].d(A)[sp].d([m5C])[sp].d(T)[sp].d(A)[sp].d(A)[sp].d([m5C])[sp].d(A)[sp].[moe](T)[sp].[moe]([m5C])p.[moe](A)[sp].[moe](G)}$$$$ (last 3' nucleoside missing)”, 2.5 score 0-7; under “RNA1{[moe](G)[sp].[moe]([m5C])p.[moe]([m5C])p.[moe](A)p.[moe](A)[sp].d(T)[sp].d(A)[sp].d(T)[sp].d(T)[sp].d(T)[sp].d(A)[sp].d(T)[sp].d(A)[sp].d(G)[sp].d(G)[sp].[moe](T)p.[moe](G)p.[moe]([m5C])[sp].[moe](T)}$$$$ (last 3' nucleoside missing)”, 3 score 0-7.

The record behind these values is the OligoGym collection.
